Experimental data published in US8551937B2, “Peptide having an extending action for half-life of object peptide in plasma” (priority 2008, dated 2013).
Read-outs that look alike come from different tables or passages of the source. Where a SMILES comes first, the peptide text is derived from it.

Test: Motilin immunoreactivity concentration in plasma, half-life after intravenous administration (Example 8)
Settings: SD, rat, in vivo, 10 nmol/kg
Summary of the method: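 Male SD rats (7 weeks, n=3/group) received human motilin or derivative at 10 nmol/kg i.v. via tail vein; arterial blood was sampled up to 60 min, with EDTA and aprotinin added. Plasma motilin immunoreactivity was measured by competitive RIA using a rabbit polyclonal antibody against native motilin residues 1–12 and ^125I-[Tyr^7] human motilin tracer.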

Row | Structure (SMILES) | half-life (male, iv) | half-life (intravenous, male rats, N = 3, read-out: T½ Mean Value)
1 | CC[C@H](C)[C@H](NC(=O)[C@@H]1CCCN1C(=O)[C@@H](NC(=O)[C@@H](N)Cc1ccccc1)C(C)C)C(=O)N[C@@H](Cc1ccccc1)C(=O)N[C@H](C(=O)N[C@@H](Cc1ccc(O)cc1)C(=O)NCC(=O)N[C@@H](CCC(=O)O)C(=O)N[C@@H](CC(C)C)C(=O)N[C@@H](CCC(N)=O)C(=O)N[C@@H](CCCNC(=N)N)C(=O)N[C@H](C(=O)N[C@@H](CCC(N)=O)C(=O)N[C@@H](CCC(N)=O)C(=O)N[C@@H](CCCCN)C(=O)N[C@@H](CCCNC(=N)N)C(=O)N[C@@H](CC(=O)O)C(=O)N[C@@H](CO)C(=O)N[C@@H](CCCNC(=N)N)C(=O)N[C@@H](CCCNC(=N)N)C(=O)N1CCC[C@H]1C(=O)N1CCC[C@H]1C(=O)N[C@@H](C)C(=O)N[C@@H](CCCCN)C(=O)N[C@@H](CC(C)C)C(=O)N[C@@H](CCC(N)=O)C(=O)N1CCC[C@H]1C(=O)N[C@@H](CCCNC(=N)N)C(=O)O)C(C)C)[C@@H](C)O [Chimeric motilin (X)(MG-17E/D)] (H-FVPIFTYGELQRVQQKRDSRRPPAKLQPR-OH) | – | 7.89 min
2 | CC[C@H](C)[C@H](NC(=O)[C@@H]1CCCN1C(=O)[C@@H](NC(=O)[C@@H](N)Cc1ccccc1)C(C)C)C(=O)N[C@@H](Cc1ccccc1)C(=O)N[C@H](C(=O)N[C@@H](Cc1ccc(O)cc1)C(=O)NCC(=O)N[C@@H](CCC(=O)O)C(=O)N[C@@H](CC(C)C)C(=O)N[C@@H](CCC(N)=O)C(=O)N[C@@H](CCCNC(=N)N)C(=O)N[C@H](C(=O)N[C@@H](CCC(N)=O)C(=O)N[C@@H](CCC(N)=O)C(=O)N[C@@H](CCCCN)C(=O)N[C@@H](CCCCN)C(=O)N[C@@H](C)C(=O)N[C@@H](Cc1ccc(O)cc1)C(=O)N[C@@H](CO)C(=O)N1CCC[C@H]1C(=O)N[C@@H](CC(=O)O)C(=O)N[C@@H](CCCCN)C(=O)N[C@@H](CCC(=O)O)C(=O)N[C@@H](CCCNC(=N)N)C(=O)N[C@@H](CCCCN)C(=O)N1CCC[C@H]1C(=O)N1CCC[C@H]1C(=O)N[C@@H](C)C(=O)N[C@@H](CC(C)C)C(=O)N[C@@H](CCC(N)=O)C(=O)N1CCC[C@H]1C(=O)N[C@@H](CCCNC(=N)N)C(=O)O)C(C)C)[C@@H](C)O [Chimeric motilin (XII)(MGP1)] (H-FVPIFTYGELQRVQQKKAYSPDKERKPPALQPR-OH; N-terminus and C-terminus assumed) | 13 min | –
3 | CC[C@H](C)[C@H](NC(=O)[C@@H]1CCCN1C(=O)[C@@H](NC(=O)[C@@H](N)Cc1ccccc1)C(C)C)C(=O)N[C@@H](Cc1ccccc1)C(=O)N[C@H](C(=O)N[C@@H](Cc1ccc(O)cc1)C(=O)NCC(=O)N[C@@H](CCC(=O)O)C(=O)N[C@@H](CC(C)C)C(=O)N[C@@H](CCC(N)=O)C(=O)N[C@@H](CCCNC(=N)N)C(=O)N[C@H](C(=O)N[C@@H](CCC(N)=O)C(=O)N[C@@H](CCC(N)=O)C(=O)N[C@@H](CCCCN)C(=O)N[C@@H](CCCCN)C(=O)N[C@@H](C)C(=O)N[C@@H](Cc1ccc(O)cc1)C(=O)N[C@@H](CO)C(=O)N1CCC[C@H]1C(=O)N[C@@H](CC(=O)O)C(=O)N[C@@H](CCCCN)C(=O)N[C@@H](CCC(=O)O)C(=O)N[C@@H](CCCNC(=N)N)C(=O)N[C@@H](CCCCN)C(=O)N1CCC[C@H]1C(=O)N1CCC[C@H]1C(=O)N[C@@H](C)C(=O)N[C@@H](CCCCN)C(=O)N[C@@H](CC(C)C)C(=O)N[C@@H](CCC(N)=O)C(=O)N1CCC[C@H]1C(=O)N[C@@H](CCCNC(=N)N)C(=O)O)C(C)C)[C@@H](C)O [Chimeric motilin (XIII)(MGP2)] (H-FVPIFTYGELQRVQQKKAYSPDKERKPPAKLQPR-OH; N-terminus and C-terminus assumed) | 13.1 min | –
4 | CC[C@H](C)[C@H](NC(=O)[C@@H]1CCCN1C(=O)[C@@H](NC(=O)[C@@H](N)Cc1ccccc1)C(C)C)C(=O)N[C@@H](Cc1ccccc1)C(=O)N[C@H](C(=O)N[C@@H](Cc1ccc(O)cc1)C(=O)NCC(=O)N[C@@H](CCC(=O)O)C(=O)N[C@@H](CC(C)C)C(=O)N[C@@H](CCC(N)=O)C(=O)N[C@@H](CCCNC(=N)N)C(=O)N[C@H](C(=O)N[C@@H](CCC(N)=O)C(=O)N[C@@H](CCC(N)=O)C(=O)N[C@@H](CCCNC(=N)N)C(=O)N[C@@H](CCCCN)C(=O)NCC(=O)N[C@@H](CCC(=O)O)C(=O)N[C@@H](CO)C(=O)N[C@@H](CCCCN)C(=O)N[C@@H](CCCCN)C(=O)N1CCC[C@H]1C(=O)N1CCC[C@H]1C(=O)N[C@@H](C)C(=O)N[C@@H](CCCCN)C(=O)N[C@@H](CC(C)C)C(=O)N[C@@H](CCC(N)=O)C(=O)N1CCC[C@H]1C(=O)N[C@@H](CCCNC(=N)N)C(=O)O)C(C)C)[C@@H](C)O [Chimeric motilin (Z)(MG-i17G)] (H-FVPIFTYGELQRVQQRKGESKKPPAKLQPR-OH; N-terminus and C-terminus assumed) | 10.5 min | –

The next lines start with results.

Row | half-life (male, iv) | Structure (SMILES) | half-life (intravenous, male rats, N = 3, read-out: T½ Mean Value)
5 | 11.6 min | CC[C@H](C)[C@H](NC(=O)[C@@H]1CCCN1C(=O)[C@@H](NC(=O)[C@@H](N)Cc1ccccc1)C(C)C)C(=O)N[C@@H](Cc1ccccc1)C(=O)N[C@H](C(=O)N[C@@H](Cc1ccc(O)cc1)C(=O)NCC(=O)N[C@@H](CCC(=O)O)C(=O)N[C@@H](CC(C)C)C(=O)N[C@@H](CCC(N)=O)C(=O)N[C@@H](CCCNC(=N)N)C(=O)N[C@H](C(=O)N[C@@H](CCC(N)=O)C(=O)N[C@@H](CCC(N)=O)C(=O)N[C@@H](CCCNC(=N)N)C(=O)N[C@@H](CCCCN)C(=O)N[C@@H](CCC(=O)O)C(=O)N[C@@H](CO)C(=O)N[C@@H](CCCCN)C(=O)N[C@@H](CCCCN)C(=O)N1CCC[C@H]1C(=O)N1CCC[C@H]1C(=O)N[C@@H](C)C(=O)N[C@@H](CCC(=O)O)C(=O)N[C@@H](CC(C)C)C(=O)N[C@@H](C)C(=O)N[C@@H](C)C(=O)N[C@@H](CC(C)C)C(=O)N[C@@H](CCCCN)C(=O)N[C@@H](C)C(=O)O)C(C)C)[C@@H](C)O [Chimeric motilin (VIII)(MG-H4)] (H-FVPIFTYGELQRVQQRKESKKPPAELAALKA-OH; N-terminus and C-terminus assumed) | –
6 | 5.39 min | CC[C@H](C)[C@H](NC(=O)[C@@H]1CCCN1C(=O)[C@@H](NC(=O)[C@@H](N)Cc1ccccc1)C(C)C)C(=O)N[C@@H](Cc1ccccc1)C(=O)N[C@H](C(=O)N[C@@H](Cc1ccc(O)cc1)C(=O)NCC(=O)N[C@@H](CCC(=O)O)C(=O)N[C@@H](CC(C)C)C(=O)N[C@@H](CCC(N)=O)C(=O)N[C@@H](CCCNC(=N)N)C(=O)N[C@H](C(=O)N[C@@H](CCC(N)=O)C(=O)N[C@@H](CCC(N)=O)C(=O)N[C@@H](CCCNC(=N)N)C(=O)N[C@@H](CCCCN)C(=O)N[C@@H](CCCCN)C(=O)N[C@@H](CCCCN)C(=O)N1CCC[C@H]1C(=O)N1CCC[C@H]1C(=O)N[C@@H](C)C(=O)N[C@@H](CCCCN)C(=O)N[C@@H](CC(C)C)C(=O)N[C@@H](CCC(N)=O)C(=O)N1CCC[C@H]1C(=O)N[C@@H](CCCNC(=N)N)C(=O)O)C(C)C)[C@@H](C)O [Chimeric motilin (W)(MG-dES)] (H-FVPIFTYGELQRVQQRKKKPPAKLQPR-OH; N-terminus and C-terminus assumed) | –
7 | 5.25 min | CC[C@H](C)[C@H](NC(=O)[C@H](CCSC)NC(=O)[C@@H]1CCCN1C(=O)[C@@H]1CCCN1C(=O)[C@H](CCCCN)NC(=O)[C@H](CCCCN)NC(=O)[C@H](CO)NC(=O)[C@H](CCC(=O)O)NC(=O)[C@H](CCCCN)NC(=O)[C@H](CCCNC(=N)N)NC(=O)[C@H](CCC(N)=O)NC(=O)[C@H](CCC(N)=O)NC(=O)[C@@H](NC(=O)[C@H](CCCNC(=N)N)NC(=O)[C@H](CCC(N)=O)NC(=O)[C@H](CC(C)C)NC(=O)[C@H](CCC(=O)O)NC(=O)CNC(=O)[C@H](Cc1ccc(O)cc1)NC(=O)[C@@H](NC(=O)[C@H](Cc1ccccc1)NC(=O)[C@@H](NC(=O)[C@@H]1CCCN1C(=O)[C@@H](NC(=O)[C@@H](N)Cc1ccccc1)C(C)C)[C@@H](C)CC)[C@@H](C)O)C(C)C)C(=O)N[C@H](C(=O)N[C@H](C(=O)N[C@@H](CCCNC(=N)N)C(=O)O)[C@@H](C)CC)[C@@H](C)O [Chimeric motilin (X)(MG-S)] (H-FVPIFTYGELQRVQQRKESKKPPMITIR-OH; N-terminus and C-terminus assumed) | –
8 | 10.3 min | CC[C@H](C)[C@H](NC(=O)[C@@H]1CCCN1C(=O)[C@@H](NC(=O)[C@@H](N)Cc1ccccc1)C(C)C)C(=O)N[C@@H](Cc1ccccc1)C(=O)N[C@H](C(=O)N[C@@H](Cc1ccc(O)cc1)C(=O)NCC(=O)N[C@@H](CCC(=O)O)C(=O)N[C@@H](CC(C)C)C(=O)N[C@@H](CCC(N)=O)C(=O)N[C@@H](CCCNC(=N)N)C(=O)N[C@@H](CCCCN)C(=O)N[C@@H](CCC(=O)O)C(=O)N[C@@H](CO)C(=O)N[C@@H](CCCCN)C(=O)N[C@@H](CCCCN)C(=O)N1CCC[C@H]1C(=O)N1CCC[C@H]1C(=O)N[C@@H](C)C(=O)N[C@@H](CCCCN)C(=O)N[C@@H](CC(C)C)C(=O)N[C@@H](C)C(=O)N[C@@H](C)C(=O)N[C@@H](CC(C)C)C(=O)N[C@@H](CCCCN)C(=O)N[C@@H](C)C(=O)O)[C@@H](C)O [Chimeric motilin (XI) (MG-d12/14)] (H-FVPIFTYGELQRKESKKPPAKLAALKA-OH; N-terminus and C-terminus assumed) | –
9 | 11.6 min | CC[C@H](C)[C@H](NC(=O)[C@@H]1CCCN1C(=O)[C@@H](NC(=O)[C@@H](N)Cc1ccccc1)C(C)C)C(=O)N[C@@H](Cc1ccccc1)C(=O)N[C@H](C(=O)N[C@@H](Cc1ccc(O)cc1)C(=O)NCC(=O)N[C@@H](CCC(=O)O)C(=O)N[C@@H](CC(C)C)C(=O)N[C@@H](CCC(N)=O)C(=O)N[C@@H](CCCNC(=N)N)C(=O)N[C@H](C(=O)N[C@@H](CCC(N)=O)C(=O)N[C@@H](CCC(N)=O)C(=O)N[C@@H](CCCCN)C(=O)N[C@@H](CCCCN)C(=O)N[C@@H](CO)C(=O)N[C@@H](CCC(=O)O)C(=O)N[C@@H](CCCCN)C(=O)N[C@@H](CCCNC(=N)N)C(=O)N1CCC[C@H]1C(=O)N1CCC[C@H]1C(=O)N[C@@H](C)C(=O)N[C@@H](CCCCN)C(=O)N[C@@H](CC(C)C)C(=O)N[C@@H](CCC(N)=O)C(=O)N1CCC[C@H]1C(=O)N[C@@H](CCCNC(=N)N)C(=O)O)C(C)C)[C@@H](C)O [Chimeric motilin (Y)(MG-BR)] (H-FVPIFTYGELQRVQQKKSEKRPPAKLQPR-OH; N-terminus and C-terminus assumed) | –
